Data taken from US12186289B2, “Compositions for feeding a pregnant animal” (Nutreco IP Assets B.V., priority 2018, dated 2025).

Tested on: sows
Assay: Example 1: top dress with a single ingredient fed to pregnant sows from day 80 of gestation to parturition; colostrum intake and gain of litters
Type: in vivo, pigs
Conditions: for Total colostrum intake per litter / Average daily gain to day 7, kg per litter: corrected for litter size, sorbic acid 5 g; for Total colostrum intake per litter: 100 g/day top dress, day 80 of gestation up to parturition, betaine 3 g daily, estimated by Theil et al. algorithm; for Average daily gain to day 7, kg per litter: betaine 3 g daily in 100 g top dress

| SMILES | Average daily gain to day 7 compared to the control (in words) | Colostrum intake per litter compared to the control (in words) | Total colostrum intake per litter | Average daily gain to day 7, kg per litter |
| --- | --- | --- | --- | --- |
| C[N+](C)(C)CC(=O)[O-] [Betaine, trimethylglycine] | negative effect | substantially lower | 5784 g | 16.1 kg per litter |
| CC=CC=CC(=O)O [Sorbic acid, 2,4-hexadienoic acid] | same result as the control | slightly lower | 6227 g | 18.2 kg per litter |
